Here are results for four substances from patent US10251949B2, “Stabilized HIV-1 peptide constructs comprising the gp120 C5 domain and gp41 hydrophilic domain” (Bionor Immuno AS, priority 2009, dated 2019).

Bridge positions count the residues as written; N and C are the ends. Ends that are not written are not given here. I, II: the chains in the order shown.

Assay [1] deals with sera from rabbits immunized with BI400-B binding to C5/gp41 (015/201). The experiment in a line: Competitive ELISA for rabbit sera after immunization with BI400-B. Conditions: for inhibition of antibody binding to C5/gp41 (015/201): antigen 10-1000 μM preincubated with rabbit serum 4° C. overnight, FIG. 3. On the procedure:
50-100 μl of a mixture of BI400-015 and -201 (pre-incubated in Coating buffer—0.05M Na2CO3 pH9.6; denoted CB—in cold at 16 μg/ml for each peptide 1-3 days prior to coating) or just CB (background control) was used for coating wells in microtiter plates at 4° C. overnight. Plates were then washed 3× with washing buffer (PBS+1% v/v Triton-X100; denoted WB), followed by 2 h blocking at room temperature (RT) with 200 μl/well of blocking buffer (PBS+1% w/v BSA). Plates were then washed 3× with WB, followed by 1 h incubation at 37° C. with 60-100 μl/well of added rabbit serum samples (diluted 1:10-1:250 final concentration) preincubated together (4° C. overnight) with serial dilutions (ranging from 10-1000 μM final concentration) of 400-SEQ.B, BI400-015, BI400-201, BI400-204d, recombinant gp41 (Shin-Won Scientific, SWO 102 gp41), BI301-23 (irrelevant protein; control), no peptide (i.e. PBS; control), LTNP-sera pools (diluted 1:10 final concentration), or Blood donor sera-pools (diluted 1:10 final concentration; control). Plates were then washed 6× with WB, followed by 1 h incubation at RT with 70 μl/well of Alkaline Phosphatase-conjugated Goat-anti-Rabbit-Ig (6 μg/ml; Dako D0487). Plates were then washed 6× with WB, followed by 10-60 min incubation at RT with 100 μl/well of 0.3% w/v of Phenoftalein monophosphate (Sigma P-5758). Plates were finally quenched by adding 100 μl/well of Quench solution (0.1M TRIS+0.1M EDTA+0.5M NaOH+0.01% w/v NaN3; pH14), followed by ELISA reader (ASYS UVM 340) at 550 nm.

Assay [2] deals with individual human sera. As to the kind of experiment: ELISA plate seroreactivity of individual human sera (LTNP, HIV chronically infected, blood donors). The class given is binding. Conditions: FIG. 2, OD. How it is done: Seroreactivities of individual LTNP patient sera to SEQ ID NO: 47 (16 μg) alone and in combination with SEQ ID NO: 6 (16 μg) were determined using an ELISA plate as a solid support. Sheep anti-C5 antibodies were used as a positive control. Optical density (OD) at […] was used as a read out following the enzymatic reaction from protein G coupled to alkaline phosphatase.

Assay [3] concerns C5/gp41 (015/201). The experiment in a line: Rabbit immunization with BI400-B vaccine, serum ELISA. The class given is in vivo. Conditions: rabbits immunized intradermally weeks 0, 2 & 6, 500 μg in Freund's adjuvant; in the presence of PBS; FIG. 3. How it is done:
New Zealand White female rabbits (n=3) were immunized intradermally at weeks 0, 2 & 6 with 1 ml of BI400-B vaccine consisting of 500 μg BI400-B in 50% V/V Freund's adjuvant (i.e. Complete Freund's adjuvant used for priming, followed by boostings with Incomplete Freund's adjuvant). Individual blood serum was isolated for ELISA.
50-100 μl of a mixture of BI400-015 and -201 (pre-incubated in Coating buffer—0.05M Na2CO3 pH9.6; denoted CB—in cold at 16 μg/ml for each peptide 1-3 days prior to coating) or just CB (background control) was used for coating wells in microtiter plates at 4° C. overnight. Plates were then washed 3× with washing buffer (PBS+1% v/v Triton-X100; denoted WB), followed by 2 h blocking at room temperature (RT) with 200 μl/well of blocking buffer (PBS+1% w/v BSA). […] Plates were finally quenched by adding 100 μl/well of Quench solution (0.1M TRIS+0.1M EDTA+0.5M NaOH+0.01% w/v NaN3; pH14), followed by ELISA reader (ASYS UVM 340) at 550 nm.

Regarding “201: gp41 peptide (DRPEGIEEEGGERDR) [compound 201]”, the “inhibition of antibody binding to C5/gp41 (015/201)” value (from here on “inhibition of antibody binding”) in assay [1] is “could be inhibited”.
On to “APTKAKRRVVQREKR (Artificial sequene) [SEQ ID NO: 47]”, for which the “magnitude of response among LTNP patients compared to patients chronically infected with HIV” value in assay [2] (individual sera) is given as “greater response”. Besides, in assay [2] (negative control sera), the “responses in blood donors” value was “consistently low”.
As to “BI400-B: SEQ ID NO: 38 and SEQ ID NO: 39 linked via Cys and Lys residues; vaccine antigen (chain 1 GAKRRVVGGCGGAKRRVVQREKRAGEREKRA; chain 2 GKGGIEEEGGRDRDRGGEQDRDR; bridge I:10-II:2 (inferred))”, in assay [3], the “binding of sera from immunized rabbits to C5/gp41 peptides” value is on record as “bound to peptides corresponding to C5/gp41 (015/201)”. The “cross competition of anti-C5/gp41 rabbit sera by LTNP-sera pools” value in assay [1] (LTNP-sera pools diluted 1:10, FIG. 4) is listed as “competitively inhibited”. In addition, in assay [1], the “inhibition of antibody binding” value is “could be inhibited”.
In the case of “GGAIVNGSLADDDIVI [204d, peptide derived from C2]”, in assay [1], the “inhibition of antibody binding” value was “could be inhibited”.
